According to patent US9981897B2, “Ethers of bis(hydroxymethyl)cyclohexanes” (BASF SE, priority 2011, dated 2018):

Tests used:
[1] = toxicological assessment
[2] = stability of the ether groups; type: physicochemical
[3] = dissolution / solvent properties for ingredients of fragrance-comprising preparations; type: physicochemical; conditions: for customary ingredients in fragrance-comprising preparations
Source text: The term “exceptional dissolution properties” refers to the solubility and also the solubilization in the perfumery application, i.e. both in the perfume oil itself, and also in the application matrix, such as soaps, creams, deodorants and others.
“Exceptional” dissolution properties are present for example if virtually all customary substances which can be used in such formulations are soluble in the solvent. “Good” dissolution properties are present if virtually all important substances which are used in such formulations are soluble in this solvent. “Moderate” dissolution properties are present if only a small fraction of the important substances is soluble or dispersible. Such substances, their importance and also the testing of the solubility in solvents are known to the person skilled in the art.

Row | stability of the ether groups [2] | dissolution properties [3] | Compound | toxicological properties [1]
1 | very high |  | CCOCC1CCC(COCC)CC1 (stereo not drawn) [Compound I, cyclohexanedimethanol diethyl ether] | toxicologically acceptable
2 |  | exceptional | CCOC[C@H]1CC[C@H](COCC)CC1 [Compound I-trans, Trans-1,4-Cyclohexanedimethanol Diethyl Ether] | 
